The target of the test is 11β-HSD1 (Homo sapiens, UniProt P28845). Briefly: biochemical. Conditions: for IC50: IC50 Range, Biological Test Example 1, microsomes from CHO cells overexpressing human 11β-HSD1; for inhibition at 0.1111 µM: read-out: Average % inhibition at 111.1 nM, Biological Test Example 1, 111.1 nM compound; for inhibition at 0.1 µM: read-out: Average % inhibition at 100 nM, Biological Test Example 1, 100 nM compound.

Molecules are shown by their SMILES.

This passage reports IC50 and inhibition results from patent US8575156B2, “Cyclic inhibitors of 11β-hydroxysteroid dehydrogenase 1” (Vitae Pharmaceuticals, Inc., priority 2007, dated 2013).

11β-HSD1, sequence (P28845 whole entry): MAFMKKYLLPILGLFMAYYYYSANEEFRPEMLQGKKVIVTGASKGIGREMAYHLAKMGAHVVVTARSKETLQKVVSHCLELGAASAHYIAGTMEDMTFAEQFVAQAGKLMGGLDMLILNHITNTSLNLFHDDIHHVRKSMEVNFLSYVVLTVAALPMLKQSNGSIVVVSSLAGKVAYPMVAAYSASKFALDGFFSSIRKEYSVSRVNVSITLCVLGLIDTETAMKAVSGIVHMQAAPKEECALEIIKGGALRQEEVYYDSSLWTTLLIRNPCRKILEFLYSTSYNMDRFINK

Take `C[C@@H](c1cccc(OCC(=O)N2CCNCC2)c1)N1CCC(C)(c2ccccc2)OC1=O` (mixture of isomers) [EXAMPLE 94, (R/S)-6-methyl-3-((S)-1-(3-(2-oxo-2-(piperazin-1-yl)ethoxy)phenyl)ethyl)-6-phenyl-1,3-oxazinan-2-one]: the half-inhibitory concentration (IC50) – broadly, the concentration that inhibits the measured activity by half – lay within 100 to 1000 nM and the inhibition (in general, the change of the read-out against control, counted positive when it falls) at 0.1111 µM amounted to 16.2%.
For `C[C@@H](c1cccc(OCC(C)(C)O)c1)N1CCC(C)(c2ccccc2)OC1=O` (mixture of isomers) [EXAMPLE 93], in that order: 100 to 1000 nM and 45.3%.
For `C[C@@H](c1ccc(-c2ccc(F)cc2F)cc1)N1CC[C@](CC(O)CO)(c2ccc(F)cc2)OC1=O` (single isomer, unassigned) [EXAMPLE 52 Isomer 1], the concentration for half-maximal inhibition (IC50) is less than 100 nM and the inhibition at 0.1 µM came to 92.8%.
Regarding `C[C@@H](c1ccccc1)N1CCC(C)(c2ccccc2)OC1=O` (single isomer, unassigned) [EXAMPLE 82 Isomer 1], the IC50 was less than 100 nM and the inhibition at 0.1111 µM amounted to 87.6%.
The corresponding values for `C[C@H](c1ccccc1)N1CCC(C)(c2ccccc2)OC1=O` (single isomer, unassigned) [EXAMPLE 83 Isomer 1] are 100 to 1000 nM and 50.3%.
Consider `COc1cccc([C@H](C)N2CCC(C)(c3ccccc3)OC2=O)c1` (single isomer, unassigned) [EXAMPLE 84 Isomer 1], for which the IC50 was less than 100 nM and the inhibition at 0.1111 µM came out at 74.8%.
With `COc1ccc([C@H](C)N2CCC(C)(c3ccccc3)OC2=O)cc1` (single isomer, unassigned) [EXAMPLE 85 Isomer 1], the IC50 was less than 100 nM and the inhibition at 0.1111 µM was found to be 93.1%.
For `Cc1ccccc1C1(C)CCN([C@@H](C)c2ccccc2)C(=O)O1` (single isomer, unassigned) [EXAMPLE 86 Isomer 1], in that order: 100 to 1000 nM and 43.3%.
For `Cc1cccc(C2(C)CCN([C@@H](C)c3ccccc3)C(=O)O2)c1` (single isomer, unassigned) [EXAMPLE 87 Isomer 1], in that order: 100 to 1000 nM and 13.3%.
Take `Cc1ccc(C2(C)CCN([C@@H](C)c3ccccc3)C(=O)O2)cc1` (single isomer, unassigned) [EXAMPLE 88 Isomer 1]: the half-inhibitory concentration (IC50) was 100 to 1000 nM and the inhibition at 0.1111 µM was 74.4%.
For `C=CC[C@]1(c2ccc(F)cc2)CCN([C@@H](C)c2ccccc2)C(=O)O1` (single isomer, unassigned) [EXAMPLE 95 Isomer 1], in that order: less than 100 nM and 91%.
The corresponding values for `C[C@@H](c1ccccc1)N1CC[C@@](CCO)(c2ccc(F)cc2)OC1=O` (single isomer, unassigned) [EXAMPLE 97 Isomer 1] are 100 to 1000 nM and 52.8%.
For `C[C@@H](c1ccccc1)N1CC[C@](CCO)(c2ccc(F)cc2)OC1=O` (single isomer, unassigned) [EXAMPLE 97 Isomer 2], in that order: less than 100 nM and 88.2%.
Regarding `C=CC[C@@]1(c2ccc(F)cc2)CCN([C@@H](C)c2ccc(Br)cc2)C(=O)O1` (single isomer, unassigned) [EXAMPLE 110 Isomer 1], the concentration for half-maximal inhibition (IC50) was less than 100 nM and the inhibition at 0.1 µM came out at 90.5%.
Take `C=CC[C@]1(c2ccc(F)cc2)CCN([C@@H](C)c2ccc(Br)cc2)C(=O)O1` (single isomer, unassigned) [EXAMPLE 110 Isomer 2]: the IC50 is less than 100 nM, the inhibition at 0.1 µM stood at 96.6% and the inhibition at 0.1111 µM is 95%.
`C=CC[C@@]1(c2ccc(F)cc2)CCN([C@@H](C)c2ccc(-c3ccc(F)cc3F)cc2)C(=O)O1` (single isomer, unassigned) [EXAMPLE 111 Isomer 1]: the IC50 was less than 100 nM and the inhibition at 0.1111 µM is 90.9%.
For `C=CC[C@]1(c2ccc(F)cc2)CCN([C@@H](C)c2ccc(-c3ccc(F)cc3F)cc2)C(=O)O1` (single isomer, unassigned) [EXAMPLE 111 Isomer 2], in that order: less than 100 nM and 58.9%.
Take `C=CC1(c2ccc(F)cc2)CCN([C@@H](C)c2ccccc2)C(=O)O1` (single isomer, unassigned) [EXAMPLE 113 Isomer 1]: the half-inhibitory concentration (IC50) was less than 100 nM and the inhibition at 0.1111 µM is 83.2%.
For `C=CCC1(c2ccc(F)cc2)CCN([C@@H](CC)c2ccc(Br)cc2)C(=O)O1` (single isomer, unassigned) [EXAMPLE 130 Isomer 1], the half-maximal inhibitory concentration (IC50) is less than 100 nM and the inhibition at 0.1 µM came to 92.2%.
The compound `CC(O)C[C@]1(c2ccc(F)cc2)CCN([C@@H](C)c2ccc(-c3ccc(F)cc3F)cc2)C(=O)O1` (single isomer, unassigned) [EXAMPLE 137 Isomer 1] registered a half-maximal inhibitory concentration (IC50) of less than 100 nM.
For `CC[C@@H](c1ccc(Br)cc1)N1CCC(CCO)(c2ccc(F)cc2)OC1=O` (single isomer, unassigned) [EXAMPLE 143 Isomer 1], the half-inhibitory concentration (IC50) was less than 100 nM and the inhibition at 0.1111 µM was 54.4%.
For `C[C@@H](c1ccc(Br)cc1)N1CC[C@](CC(O)CO)(c2ccc(F)cc2)OC1=O` (single isomer, unassigned) [EXAMPLE 144 Isomer 1], in that order: less than 100 nM and 90.6%.
Regarding `C=CCC1(c2cccs2)CCN([C@@H](C)c2ccc(Br)cc2)C(=O)O1` (single isomer, unassigned) [EXAMPLE 157 Isomer 1], the IC50 is less than 100 nM and the inhibition at 0.1 µM stood at 97.4%.
Turning to `C=CCC1(c2cccs2)CCN([C@@H](C)c2ccc(-c3ccc(F)cc3)cc2)C(=O)O1` (single isomer, unassigned) [EXAMPLE 160 Isomer 1], the IC50 is less than 100 nM and the inhibition at 0.1111 µM was determined as 93.5%.
`CC1CC(CCO)(c2ccc(F)cc2)OC(=O)N1[C@@H](C)c1ccc(Br)cc1` (single isomer, unassigned) [EXAMPLE 163 Isomer 1]: the IC50 is less than 100 nM and the inhibition at 0.1111 µM amounted to 66.8%.
Take `CC(O)C[C@@]1(c2cccs2)CCN([C@@H](C)c2ccc(-c3ccc(F)cc3)cc2)C(=O)O1` (single isomer, unassigned) [EXAMPLE 167 Isomer 1]: the IC50 was less than 100 nM, the inhibition at 0.1 µM was 73.7% and the inhibition at 0.1111 µM was found to be 79%.
For the compound `C[C@@H](c1ccc(-c2ccc(F)cc2)cc1)N1CC[C@](CC(O)CO)(c2ccccc2)OC1=O` (single isomer, unassigned) [EXAMPLE 168 Isomer 1], the half-maximal inhibitory concentration (IC50) is less than 100 nM and the inhibition at 0.1 µM was found to be 97.2%.
For `C[C@@H](c1ccc(-c2ccc(F)cc2F)cc1)N1CC[C@](CC(O)CO)(c2ccccc2)OC1=O` (single isomer, unassigned) [EXAMPLE 173 Isomer 1], in that order: less than 100 nM and 96.7%.
For `C=CCC1(c2ccc(F)cc2)CCN([C@@H](C)c2ccc(C)cc2)C(=O)O1` (single isomer, unassigned) [EXAMPLE 189 Isomer 1], in that order: less than 100 nM and 95.2%.
Take `C=CCC1(c2ccc(F)cc2)CCN([C@@H](C)c2ccc(OC)cc2)C(=O)O1` (single isomer, unassigned) [EXAMPLE 193 Isomer 1]: the half-maximal inhibitory concentration (IC50) was less than 100 nM.
Regarding `C=CCC1(c2ccc(F)cc2)CCN([C@@H](C)c2ccc(Cl)cc2)C(=O)O1` (single isomer, unassigned) [EXAMPLE 196 Isomer 1], the IC50 is less than 100 nM and the inhibition at 0.1 µM worked out at 101%.
For `C[C@@H](C1CCCCC1)N1CC[C@](CC(O)CO)(c2ccc(F)cc2)OC1=O` (single isomer, unassigned) [EXAMPLE 197 Isomer 1], in that order: less than 100 nM and 90.4%.
For `CC(C)C1(CCCO)CCN([C@@H](C)c2ccc(Br)cc2)C(=O)O1` (single isomer, unassigned) [EXAMPLE 200 Isomer 1], the IC50 was less than 100 nM.
As to `CC(O)C[C@]1(c2ccc(F)cc2)CCN([C@@H](C)c2ccc(Cl)cc2)C(=O)O1` (single isomer, unassigned) [EXAMPLE 203 Isomer 1], the IC50 was less than 100 nM and the inhibition at 0.1 µM stood at 88.6%.
Regarding `COc1ccc([C@H](C)N2CC[C@](CC(O)CO)(c3ccc(F)cc3)OC2=O)cc1` (single isomer, unassigned) [EXAMPLE 206 Isomer 1], the IC50 is less than 100 nM and the inhibition at 0.1 µM is 90.3%.
The corresponding values for `CC(C)C1(CCCO)CCN([C@@H](C)c2ccc(-c3ccc(F)cc3F)cc2)C(=O)O1` (single isomer, unassigned) [EXAMPLE 212 Isomer 1] are less than 100 nM and 96.8%.
For `C[C@@H](c1ccc(-c2ccc(F)cc2)cc1)N1CC[C@](CCO)(c2cccs2)OC1=O` (single isomer, unassigned) [EXAMPLE 218 Isomer 1], in that order: less than 100 nM and 97.4%.
As for `C[C@@H](c1ccc(-c2ccc(F)cc2)cc1)N1CC[C@@](CCO)(c2cccs2)OC1=O` (single isomer, unassigned) [EXAMPLE 218 Isomer 2], the half-inhibitory concentration (IC50) was less than 100 nM and the inhibition at 0.1 µM was found to be 60.3%.
Take `CC(O)C[C@]1(c2ccccc2)CCN([C@@H](C)c2ccc(-c3ccc(F)cc3)cc2)C(=O)O1` (single isomer, unassigned) [EXAMPLE 224 Isomer 1]: the half-inhibitory concentration (IC50) was less than 100 nM and the inhibition at 0.1 µM was 100%.
Turning to `C[C@@H](c1ccc(Br)cc1)N1CCC(CCCO)(c2ccc(F)cc2)OC1=O` (single isomer, unassigned) [EXAMPLE 227 Isomer 1], the IC50 is less than 100 nM.
Consider `CC[C@@H](c1ccc(Br)cc1)N1CC[C@](CC(O)CO)(c2ccccc2)OC1=O` (single isomer, unassigned) [EXAMPLE 239 Isomer 1], for which the IC50 is less than 100 nM and the inhibition at 0.1 µM amounted to 91.5%.
The corresponding values for `CC[C@@H](c1ccc(Br)cc1)N1CC[C@](CC(O)CO)(c2ccc(F)cc2)OC1=O` (single isomer, unassigned) [EXAMPLE 255 Isomer 1] are less than 100 nM and 92.5%.
